Test results from patent US20100221308A1, “ANTIMICROBIAL COMPOSITIONS AND USES THEREOF” (KANE BIOTECH INC., priority 2005, published 2010).
≈ marks a conversion by molar mass, not a printed value. Where two headings read alike, the source gives them in different places.

Experiments:
[1] = test system: B. cereus; assay: MIC, broth microdilution assay; format: cell-based, Bacillus cereus; conditions: agent alone, 24 h
[2] = test system: S. aureus; assay: MIC, broth microdilution assay; format: cell-based, Staphylococcus aureus; conditions: agent alone, 24 h
[3] = test system: biofilm embedded Pseudomonas aeruginosa; assay: In vitro microplate assay, growth of biofilm embedded bacteria (CFU); format: cell-based; conditions: FIG. 2: 25 μg/ml PS, 25 μg/ml CHX; 24 hours
Protocol: (§1) In vitro microplate assays were performed to determine the enhanced effects of protamine sulfate and chlorhexidine salt combination on the growth of biofilm embedded biofilm forming catheter-associated bacteria such as E. coli, Pseudomonas aeruginosa and Staphylococcus epidermidis. Overnight culture of each bacterial strain grown in Luria-Bertani (LB) or Tryptic Soy Broth (TSB) was used as inoculum. Bacteria were grown in Colony Forming Antigen (CFA) medium (for gram-negative) or in TSB (for gram-positive) on a 12-well microplate in the absence and presence of each test compound (PS or CHX) separately and together (PS+CHX) at 12.5, 25, or 50 μg/ml. The plate was incubated at 37° C. for 24 hours. Media containing planktonic cells in each well were removed gently and rinsed with sterile water. A known volume of water was added to each well and sonicated for 30 seconds. The transfer of contents of each well into a sterile tube and vortexing for a minute was followed by 10-fold serial dilution and plating on agar plates using a spreader. After incubating the plates at 37° C. for 24 hours, the colonies forming units (CFU) were counted.

[4] = test system: biofilm embedded E. coli; assay: as above; format: cell-based; conditions: FIG. 1: 50 μg/ml PS, 12.5 μg/ml CHX; 24 hours
Protocol: as §1

[5] = test system: C. perfringens; assay: microbe, parasite or virus in culture; format: cell-based, Clostridium perfringens; conditions: 24 h
[6] = test system: E. coli; assay: MIC, broth microdilution assay; format: cell-based; conditions: agent alone, 24 h
[7] = test system: S. thermophilus; assay: MIC, broth microdilution assay; format: cell-based, Streptococcus thermophilus; conditions: agent alone, 24 h
[8] = test system: L. monocytogens; assay: MIC, broth microdilution assay; format: cell-based, Listeria monocytogenes; conditions: agent alone, 24 h
[9] = test system: biofilm embedded Staphylococcus epidermidis; assay: In vitro microplate assay, growth of biofilm embedded bacteria (CFU); format: cell-based; conditions: FIG. 3: 12.5 μg/ml PS, 12.5 μg/ml CHX; 24 hours
Protocol: as §1, with “Bacteria were grown in Colony Forming Antigen (CFA) medium (for gram-negative) or in TSB (for gram-positive) on a 12-well microplate in the absence and presence of each test compound (PS or CHX) separately and together (PS+CHX) at 12.5, 25, or 50 μg/ml.” left out

[10] = test system: K. pneumoniae; assay: MIC, broth microdilution assay; format: cell-based, Klebsiella pneumoniae; conditions: agent alone, 24 h
[11] = test system: S. mutans UA 159; assay: MIC for oral bacteria, broth microdilution assay; format: cell-based; conditions: agent alone, 24 h
Protocol: (§2) The minimum inhibitory concentrations (MICs) of chlorhexidine (CHX) and protamine sulfate (PS) alone and CHX and PS combination for S. mutans, S. sobrinus and A. naeslundii were determined using a broth microdilution assay in 96-well microtiter plate as described previously (Amsterdam, D. 1996., In: V. Loman, Ed., “Antibiotics in laboratory medicine”, p. 52-111, Williams and Wilkins, Baltimore, Md.). S. mutans and S. sobrinus were grown overnight at 37° C. with 100 rpm shaking in THYE broth supplemented with 0.01% hog gastric mucin, and A. naeslundii was grown in TSB-YK broth, and diluted to approximately 10^5 CFU/ml. […] Plates were incubated at 37° C. for 24 h and were read at 600 nm using a microtiter plate reader (Labsystems, Multiskan Ascent, Helsinki, Finland).

[12] = test system: S. sobrinus HNG 909S; assay: MIC for oral bacteria, broth microdilution assay; format: cell-based; conditions: agent alone, 24 h
Protocol: as §2

[13] = test system: A. naeslundii ATCC 12104; assay: MIC for oral bacteria, broth microdilution assay; format: cell-based; conditions: agent alone, 24 h
Protocol: as §2

[14] = test system: P. aeruginosa; assay: MIC, broth microdilution assay; format: cell-based, Pseudomonas aeruginosa; conditions: agent alone, 24 h

Molecule: [H]/N=C(\N/C(=N/[H])NCCCCCCNC(=N)NC(=N)Nc1ccc(Cl)cc1)Nc1ccc(Cl)cc1 [CHX, chlorhexidine]
- MIC ([1]; Bacillus cereus, read-out: MIC): 3.12 µg/mL (≈ 6.18 µM)
- MIC ([2]; Staphylococcus aureus, read-out: MIC): 0.781 µg/mL (≈ 1.55 µM)
- inhibition of growth of biofilm embedded organism (CFU), in words [3]: more effective than protamine sulfate
- inhibition of growth of biofilm embedded organism (CFU), in words [4]: more effective than protamine sulfate
- MIC ([5]; Clostridium perfringens): 1.56 µg/mL (≈ 3.09 µM)
- MIC ([6]; Escherichia coli, read-out: MIC): 0.39 µg/mL (≈ 0.772 µM)
- MIC ([7]; Streptococcus thermophilus, read-out: MIC): < 0.195 µg/mL
- MIC ([8]; Listeria monocytogenes, read-out: MIC): 3.12 µg/mL (≈ 6.18 µM)
- inhibition of growth of biofilm embedded organism (CFU), in words [9]: more effective than protamine sulfate
- MIC ([10]; Klebsiella pneumoniae, read-out: MIC): 6.25 µg/mL (≈ 12.4 µM)
- MIC ([11]; Streptococcus mutans, UA159, read-out: Minimum inhibitory concentration): 6.25 µg/mL
- MIC ([12]; Streptococcus sobrinus, HNG909S, read-out: Minimum inhibitory concentration): 1.56 µg/mL
- MIC ([13]; Actinomyces naeslundii, ATCC12104, read-out: Minimum inhibitory concentration): 50 µg/mL
- MIC ([14]; Pseudomonas aeruginosa, read-out: MIC): 12.5 µg/mL (≈ 24.7 µM)

Molecule: protamine sulfate [PS]
- MIC [1]: >200 µg/mL
- MIC [2]: 200 µg/mL
- MIC ([5]; agent alone): >200 µg/mL
- MIC [6]: >100 µg/mL
- MIC [7]: 200 µg/mL
- MIC [8]: 200 µg/mL
- MIC [10]: >200 µg/mL
- Minimum inhibitory concentration [11]: >200 µg/mL
- Minimum inhibitory concentration [12]: >200 µg/mL
- Minimum inhibitory concentration [13]: >200 µg/mL
- MIC [14]: 200 µg/mL
